Assays:
BaF3_HER2WT cells = BaF3_HER2WT cells (Homo sapiens, UniProt P04626); assay: Cell growth inhibition assay (CellTiterGlo), BaF3_HER2WT; assay type: cell-based; conditions: 3-day treatment, CellTiterGlo, read-out: Cell growth inhibition activity, HER2 WT
[1] = molecular target: T1, ERBB2-A775_G776insYVMA (ERBB2YVMA) (Homo sapiens, UniProt P04626, INS775YVMA); assay: HotSpot radiometric kinase activity assay, ERBB2YVMA; conditions: biochemical activity, 20 nM ERBB2YVMA, 10 μM 33P-ATP, 2 hours, read-out: HER2 - YVMA IC50
T1 construct: purchased SignalChem E27-13BG
T1 sequence (P04626 with tags, fused parts or gaps INS775YVMA limits assumed): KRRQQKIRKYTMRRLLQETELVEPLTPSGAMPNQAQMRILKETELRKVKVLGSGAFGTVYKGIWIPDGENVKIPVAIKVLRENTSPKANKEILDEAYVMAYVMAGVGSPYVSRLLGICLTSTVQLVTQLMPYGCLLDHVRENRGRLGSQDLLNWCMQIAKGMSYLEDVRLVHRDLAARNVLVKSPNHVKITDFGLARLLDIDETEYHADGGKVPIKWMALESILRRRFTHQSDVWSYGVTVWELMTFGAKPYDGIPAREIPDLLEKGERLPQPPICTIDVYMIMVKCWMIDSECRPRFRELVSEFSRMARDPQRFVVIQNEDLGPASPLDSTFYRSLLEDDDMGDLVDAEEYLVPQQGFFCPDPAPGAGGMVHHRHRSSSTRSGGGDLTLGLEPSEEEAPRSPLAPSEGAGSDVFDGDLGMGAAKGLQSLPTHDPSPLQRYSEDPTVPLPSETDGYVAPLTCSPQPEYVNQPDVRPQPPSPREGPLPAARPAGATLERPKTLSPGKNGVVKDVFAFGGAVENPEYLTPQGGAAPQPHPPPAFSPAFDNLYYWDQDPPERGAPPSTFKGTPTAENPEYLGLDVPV
Protocol: The purpose of the wtERBB2, ERBB2-A775_G776insYVMA (ERBB2YVMA), wtEGFR biochemical assay was to evaluate the inhibition (% inhibition and IC50 values) of the small molecule inhibitors by using the “HotSpot” radiometric kinase activity assay. HotSpot assays monitor the production of kinase substrate by the radioactive gamma phosphate of adenosine triphosphate (33P-ATP) during biochemical reactions. HotSpot assays was performed in steps upon completion of the kinase reaction: deposition of a reaction mixture aliquot onto P81 ion exchange paper, extensive washing of the aforementioned P81 paper using phosphoric acid to remove unbound radiolabeled 33P-ATP from the P81 paper, and finally visualization and quantification of the dried P81 paper utilizing a phosphoimager. […] Typical reaction solutions (10 μL, final reaction volume) contained the following buffer conditions: 20 mM Hepes (pH 7.5), 10 mM MgCl2, 1 mM EGTA, 0.01% Brij35, 0.02 mg/mL BSA, 0.1 mM Na3VO4, 2 mM DTT, 1% DMSO. The assay was primed by preparing a fresh 0.2 mg/mL solution of pEY (Sigma Cat: P7244) substrate in the reaction buffer and supplementing that solution with […] of MnCl2 as substrate cofactor (Sigma Cat: M9522). The kinase of interest was then added to the solution at the appropriate concentration (30 nM wtERBB2 from, or 20 nM ERBB2YVMA, or 4 nM wtEGFR) and gently mixed prior to delivery of compound in 100% DMSO by acoustic dispensing (Beckman Echo550). Compound, Kinase, and substrate were allowed to incubate for 20 min at room temperature prior to the initiation of the reaction by addition of 33P-ATP (PerkinElmer Cat: NEG602, final conc 10 μM). […] IC50 determinations were made from a plot of kinase activity as a function of inhibitor concentration fit to the 4-parameter IC50 equation with the enzyme concentration held constant using GraphPad Prism (San Diego).

BaF3_EGFRWT cells = BaF3_EGFRWT cells (Homo sapiens, UniProt P00533); assay: Cell growth inhibition assay (CellTiterGlo), BaF3_EGFRWT; assay type: cell-based; conditions: 3-day treatment, CellTiterGlo, read-out: Cell growth inhibition activity, EGFR WT
BaF3_EGFRWT cells, sequence (P00533 whole entry, change not shown): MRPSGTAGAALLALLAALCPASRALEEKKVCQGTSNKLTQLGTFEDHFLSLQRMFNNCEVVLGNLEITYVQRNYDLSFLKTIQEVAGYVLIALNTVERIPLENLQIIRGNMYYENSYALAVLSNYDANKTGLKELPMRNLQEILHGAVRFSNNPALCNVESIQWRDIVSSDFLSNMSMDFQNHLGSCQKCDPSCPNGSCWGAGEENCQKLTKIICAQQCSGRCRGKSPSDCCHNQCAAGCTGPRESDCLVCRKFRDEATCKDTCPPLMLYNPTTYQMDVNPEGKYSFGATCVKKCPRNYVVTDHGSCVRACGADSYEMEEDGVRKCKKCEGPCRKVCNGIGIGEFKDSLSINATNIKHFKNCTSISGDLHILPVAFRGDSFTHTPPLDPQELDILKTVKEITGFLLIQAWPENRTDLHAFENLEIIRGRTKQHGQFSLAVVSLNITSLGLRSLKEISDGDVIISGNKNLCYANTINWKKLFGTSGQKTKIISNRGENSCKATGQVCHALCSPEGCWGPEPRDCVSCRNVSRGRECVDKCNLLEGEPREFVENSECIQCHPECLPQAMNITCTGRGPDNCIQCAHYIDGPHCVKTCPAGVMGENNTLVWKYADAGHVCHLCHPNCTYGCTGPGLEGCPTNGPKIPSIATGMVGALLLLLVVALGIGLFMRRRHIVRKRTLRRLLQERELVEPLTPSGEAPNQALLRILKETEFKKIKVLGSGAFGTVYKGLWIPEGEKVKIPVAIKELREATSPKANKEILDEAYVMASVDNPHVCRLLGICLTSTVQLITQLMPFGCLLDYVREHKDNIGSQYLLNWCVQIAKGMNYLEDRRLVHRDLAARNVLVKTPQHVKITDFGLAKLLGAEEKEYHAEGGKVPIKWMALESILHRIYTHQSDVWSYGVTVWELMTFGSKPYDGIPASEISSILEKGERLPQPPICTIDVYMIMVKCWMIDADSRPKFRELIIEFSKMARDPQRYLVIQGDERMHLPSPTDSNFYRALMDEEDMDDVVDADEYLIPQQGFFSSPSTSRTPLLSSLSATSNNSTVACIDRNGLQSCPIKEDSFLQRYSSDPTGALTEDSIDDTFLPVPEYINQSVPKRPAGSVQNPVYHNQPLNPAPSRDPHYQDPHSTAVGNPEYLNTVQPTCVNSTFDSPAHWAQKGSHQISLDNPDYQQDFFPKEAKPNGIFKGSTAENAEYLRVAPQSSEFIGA

BaF3_HER2YVMA cells = BaF3_HER2YVMA cells (Homo sapiens, UniProt P04626, DUP772-775, cells depend on it); assay: Cell growth inhibition assay (CellTiterGlo), BaF3_HER2YVMA; assay type: cell-based; conditions: 3-day treatment, CellTiterGlo, read-out: Cell growth inhibition activity, HER2 - YVMA
BaF3_HER2YVMA cells, sequence (P04626 with tags, fused parts or gaps DUP772-775): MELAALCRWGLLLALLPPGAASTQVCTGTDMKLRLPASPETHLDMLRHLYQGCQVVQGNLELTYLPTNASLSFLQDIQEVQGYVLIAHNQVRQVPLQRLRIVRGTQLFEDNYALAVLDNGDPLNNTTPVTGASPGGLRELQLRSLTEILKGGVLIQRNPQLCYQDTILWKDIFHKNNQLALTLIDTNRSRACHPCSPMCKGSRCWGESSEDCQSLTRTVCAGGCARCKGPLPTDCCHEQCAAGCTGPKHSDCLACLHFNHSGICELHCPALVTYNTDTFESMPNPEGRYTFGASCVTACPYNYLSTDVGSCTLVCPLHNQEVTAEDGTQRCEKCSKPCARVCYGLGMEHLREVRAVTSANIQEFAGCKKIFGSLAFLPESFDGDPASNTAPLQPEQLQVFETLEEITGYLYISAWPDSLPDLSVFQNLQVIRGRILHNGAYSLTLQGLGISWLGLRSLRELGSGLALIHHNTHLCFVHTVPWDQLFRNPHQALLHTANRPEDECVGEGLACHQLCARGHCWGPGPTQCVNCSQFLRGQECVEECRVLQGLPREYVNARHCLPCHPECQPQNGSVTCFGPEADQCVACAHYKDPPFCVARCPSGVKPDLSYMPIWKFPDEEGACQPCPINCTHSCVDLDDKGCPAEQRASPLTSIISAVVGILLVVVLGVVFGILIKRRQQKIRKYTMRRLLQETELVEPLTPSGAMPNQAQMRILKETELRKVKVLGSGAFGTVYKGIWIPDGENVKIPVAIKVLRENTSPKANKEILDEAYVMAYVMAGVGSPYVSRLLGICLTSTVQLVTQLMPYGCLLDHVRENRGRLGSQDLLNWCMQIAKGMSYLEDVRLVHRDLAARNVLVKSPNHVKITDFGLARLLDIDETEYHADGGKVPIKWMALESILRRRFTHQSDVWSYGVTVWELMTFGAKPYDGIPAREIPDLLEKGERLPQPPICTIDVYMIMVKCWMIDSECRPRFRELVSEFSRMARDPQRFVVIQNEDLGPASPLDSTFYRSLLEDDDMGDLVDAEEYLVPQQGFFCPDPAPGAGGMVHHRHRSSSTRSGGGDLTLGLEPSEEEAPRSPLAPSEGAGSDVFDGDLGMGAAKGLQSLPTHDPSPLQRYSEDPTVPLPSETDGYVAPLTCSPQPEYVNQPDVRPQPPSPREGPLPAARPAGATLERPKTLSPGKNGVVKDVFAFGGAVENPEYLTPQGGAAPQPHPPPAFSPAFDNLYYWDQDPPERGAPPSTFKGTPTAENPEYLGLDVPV

BaF3_HER2WT cells, sequence (P04626 whole entry, stated change not applied): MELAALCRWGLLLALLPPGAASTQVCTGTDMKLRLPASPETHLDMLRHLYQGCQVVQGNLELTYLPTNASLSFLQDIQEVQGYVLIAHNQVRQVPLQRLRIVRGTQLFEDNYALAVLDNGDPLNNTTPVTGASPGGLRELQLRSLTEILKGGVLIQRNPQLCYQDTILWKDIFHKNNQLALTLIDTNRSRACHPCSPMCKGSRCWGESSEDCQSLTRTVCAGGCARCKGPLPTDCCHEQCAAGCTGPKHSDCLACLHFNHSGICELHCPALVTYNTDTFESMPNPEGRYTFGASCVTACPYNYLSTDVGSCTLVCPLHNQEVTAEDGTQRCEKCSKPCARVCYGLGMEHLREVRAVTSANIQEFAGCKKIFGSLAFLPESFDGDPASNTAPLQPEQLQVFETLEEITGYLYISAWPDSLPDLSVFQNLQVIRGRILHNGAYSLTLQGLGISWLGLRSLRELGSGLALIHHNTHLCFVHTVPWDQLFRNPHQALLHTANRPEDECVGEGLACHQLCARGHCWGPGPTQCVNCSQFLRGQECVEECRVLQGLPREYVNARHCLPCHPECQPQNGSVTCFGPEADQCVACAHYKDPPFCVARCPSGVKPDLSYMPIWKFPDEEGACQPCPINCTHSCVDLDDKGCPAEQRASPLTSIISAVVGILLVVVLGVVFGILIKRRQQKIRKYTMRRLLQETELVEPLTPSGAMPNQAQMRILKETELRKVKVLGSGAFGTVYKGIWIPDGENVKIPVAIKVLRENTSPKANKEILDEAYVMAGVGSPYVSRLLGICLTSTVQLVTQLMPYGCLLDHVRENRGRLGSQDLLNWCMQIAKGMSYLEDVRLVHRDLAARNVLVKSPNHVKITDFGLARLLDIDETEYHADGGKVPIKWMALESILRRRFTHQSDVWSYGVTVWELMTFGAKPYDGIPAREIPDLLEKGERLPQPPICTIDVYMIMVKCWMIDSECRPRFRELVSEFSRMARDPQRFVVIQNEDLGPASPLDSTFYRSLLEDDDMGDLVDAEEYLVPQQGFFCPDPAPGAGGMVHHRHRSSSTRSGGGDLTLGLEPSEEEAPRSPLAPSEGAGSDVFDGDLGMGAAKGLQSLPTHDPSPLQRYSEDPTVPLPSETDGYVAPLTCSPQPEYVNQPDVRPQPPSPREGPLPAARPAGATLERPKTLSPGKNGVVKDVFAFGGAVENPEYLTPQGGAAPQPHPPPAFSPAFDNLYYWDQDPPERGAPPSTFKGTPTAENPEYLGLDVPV

| Structure (SMILES) | GI50 (BaF3_HER2WT cells) [nM] | IC50 [1] [nM] | GI50 (BaF3_EGFRWT cells) [nM] | GI50 (BaF3_HER2YVMA cells) [nM] |
| --- | --- | --- | --- | --- |
| Cc1cc(Nc2ncnn3ccc(C4CN(C(=O)/C=C/CN(C)C)C4)c23)ccc1Oc1ccn2ncnc2c1 [Example 1, (E)-1-(3-(4-((4-([1,2,4]triazolo[1,5-a]pyridin-7-yloxy)-3-methylphenyl)amino)pyrrolo[2,1-f][1,2,4]triazin-5-yl)azetidin-1-yl)-4-(dimethylamino)but-2-en-1-one] | < 200 | < 200 | 1500 to 5000 | < 200 |
| C=CC(=O)N1CC(n2cc(-c3ccn4ncnc(Nc5ccc(Oc6ccn7ncnc7c6)c(C)c5)c34)cn2)C1 [Example 2, 1-(3-(4-(4-((4-([1,2,4]triazolo[1,5-a]pyridin-7-yloxy)-3-methylphenyl)amino)pyrrolo[2,1-f][1,2,4]triazin-5-yl)-1H-pyrazol-1-yl)azetidin-1-yl)prop-2-en-1-one] | < 200 | < 200 | 1500 to 5000 | < 200 |
| C=CC(=O)N1CCN(c2ccn3ncnc(Nc4ccc(Oc5ccn6ncnc6c5)c(C)c4)c23)CC1 [Example 6, 1-(4-(4-((4-([1,2,4]triazolo[1,5-a]pyridin-7-yloxy)-3-methylphenyl)amino)pyrrolo[2,1-f][1,2,4]triazin-5-yl)piperazin-1-yl)prop-2-en-1-one] | < 200 | < 200 | 500 to 1500 | < 200 |
| C=CC(=O)N1CCC(c2ccn3ncnc(Nc4ccc(Oc5ccn6ncnc6c5)c(C)c4)c23)CC1 [Example 7, 1-(4-(4-((4-([1,2,4]triazolo[1,5-a]pyridin-7-yloxy)-3-methylphenyl)amino)pyrrolo[2,1-f][1,2,4]triazin-5-yl)piperidin-1-yl)prop-2-en-1-one] | < 200 | < 200 | 200 to 500 | < 200 |
| C=CC(=O)N1CCCN(c2ccn3ncnc(Nc4ccc(Oc5ccn6ncnc6c5)c(C)c4)c23)CC1 [Example 8, 1-(4-(4-((4-([1,2,4]triazolo[1,5-a]pyridin-7-yloxy)-3-methylphenyl)amino)pyrrolo[2,1-f][1,2,4]triazin-5-yl)-1,4-diazepan-1-yl)prop-2-en-1-one] | < 200 | < 200 | 500 to 1500 | < 200 |
| C=CC(=O)N1CC(c2ccn(-c3ccn4ncnc(Nc5ccc(Oc6ccn7ncnc7c6)c(C)c5)c34)n2)C1 [Example 10, 1-(3-(1-(4-((4-([1,2,4]triazolo[1,5-a]pyridin-7-yloxy)-3-methylphenyl)amino)pyrrolo[2,1-f][1,2,4]triazin-5-yl)-1H-pyrazol-3-yl)azetidin-1-yl)prop-2-en-1-one] | 200 to 500 | < 200 | 1500 to 5000 | 500 to 1500 |
| C=CC(=O)N1CCCC(c2ccn3ncnc(Nc4ccc(Oc5ccn6ncnc6c5)c(C)c4)c23)C1 (stereo not shown) [Example 12, 1-(3-(4-((4-([1,2,4]triazolo[1,5-a]pyridin-7-yloxy)-3-methylphenyl)amino)pyrrolo[2,1-f][1,2,4]triazin-5-yl)piperidin-1-yl)prop-2-en-1-one] | < 200 | < 200 | 1500 to 5000 | < 200 |
| CO[C@@H]1CN(C/C=C/C(=O)N2CC(c3ccn4ncnc(Nc5ccc(Oc6ccc7c(c6)ncn7C)c(C)c5)c34)C2)C[C@H]1OC [Example 166, (E)-4-((3R,4R)-3,4-dimethoxypyrrolidin-1-yl)-1-(3-(4-((3-methyl-4-((1-methyl-1H-benzo[d]imidazol-5-yl)oxy)phenyl)amino)pyrrolo[2,1-f][1,2,4]triazin-5-yl)azetidin-1-yl)but-2-en-1-one] | < 200 |  | 1500 to 5000 | < 200 |
| CO[C@H]1CN(C/C=C/C(=O)N2CCC(c3ccn4ncnc(Nc5ccc(Oc6ccc7c(c6)ncn7C)c(C)c5)c34)CC2)C[C@H]1OC [Example 167, (E)-4-((3R,4S)-3,4-dimethoxypyrrolidin-1-yl)-1-(4-(4-((3-methyl-4-((1-methyl-1H-benzo[d]imidazol-5-yl)oxy)phenyl)amino)pyrrolo[2,1-f][1,2,4]triazin-5-yl)piperidin-1-yl)but-2-en-1-one] | < 200 |  | 1500 to 5000 | < 200 |
| CO[C@@H]1CN(C/C=C/C(=O)N2CCC(c3ccn4ncnc(Nc5ccc(Oc6ccc7c(c6)ncn7C)c(C)c5)c34)CC2)C[C@H]1OC [Example 168, (E)-4-((3R,4R)-3,4-dimethoxypyrrolidin-1-yl)-1-(4-(4-((3-methyl-4-((1-methyl-1H-benzo[d]imidazol-5-yl)oxy)phenyl)amino)pyrrolo[2,1-f][1,2,4]triazin-5-yl)piperidin-1-yl)but-2-en-1-one] | < 200 |  | 1500 to 5000 | < 200 |
| CO[C@H]1CN(C/C=C/C(=O)N2CCC(c3ccn4ncnc(Nc5ccc(Oc6ccn7ncnc7c6)c(C)c5)c34)CC2)C[C@H]1OC [Example 169, (E)-1-(4-(4-((4-([1,2,4]triazolo[1,5-a]pyridin-7-yloxy)-3-methylphenyl)amino)pyrrolo[2,1-f][1,2,4]triazin-5-yl)piperidin-1-yl)-4-((3R,4S)-3,4-dimethoxypyrrolidin-1-yl)but-2-en-1-one] | < 200 |  | 1500 to 5000 | < 200 |
| CO[C@@H]1CN(C/C=C/C(=O)N2CCC(c3ccn4ncnc(Nc5ccc(Oc6ccn7ncnc7c6)c(C)c5)c34)CC2)C[C@H]1OC [Example 170, (E)-1-(4-(4-((4-([1,2,4]triazolo[1,5-a]pyridin-7-yloxy)-3-methylphenyl)amino)pyrrolo[2,1-f][1,2,4]triazin-5-yl)piperidin-1-yl)-4-((3R,4R)-3,4-dimethoxypyrrolidin-1-yl)but-2-en-1-one] | < 200 |  | 1500 to 5000 | < 200 |
| Cc1cc(Nc2ncnn3ccc(C4(F)CCN(C(=O)/C=C/CN(C)C)CC4)c23)ccc1Oc1ccn2ncnc2c1 [Example 175, (E)-1-(4-(4-((4-([1,2,4]triazolo[1,5-a]pyridin-7-yloxy)-3-methylphenyl)amino)pyrrolo[2,1-f][1,2,4]triazin-5-yl)-4-fluoropiperidin-1-yl)-4-(dimethylamino)but-2-en-1-one] | 1500 to 5000 |  | 1500 to 5000 | 1500 to 5000 |
| Cc1cc(Nc2ncnn3ccc(C4CCN(C(=O)/C=C/CN(C)C)CC4(F)F)c23)ccc1Oc1ccn2ncnc2c1 (stereo not shown) [Example 176, (E)-1-(4-(4-((4-([1,2,4]triazolo[1,5-a]pyridin-7-yloxy)-3-methylphenyl)amino)pyrrolo[2,1-f][1,2,4]triazin-5-yl)-3,3-difluoropiperidin-1-yl)-4-(dimethylamino)but-2-en-1-one] | < 200 |  | 1500 to 5000 | < 200 |
| CNC/C=C/C(=O)N1CCC(c2ccn3ncnc(Nc4ccc(Oc5ccn6ncnc6c5)c(C)c4)c23)CC1 [Example 177, (E)-1-(4-(4-((4-([1,2,4]triazolo[1,5-a]pyridin-7-yloxy)-3-methylphenyl)amino)pyrrolo[2,1-f][1,2,4]triazin-5-yl)piperidin-1-yl)-4-(methylamino)but-2-en-1-one] | < 200 |  | 1500 to 5000 | < 200 |
| Cc1cc(Nc2ncnn3ccc(C(=O)NCCCN(C)C)c23)ccc1N [Example 181, 4-((4-amino-3-methylphenyl)amino)-N-(3-(dimethylamino)propyl)pyrrolo[2,1-f][1,2,4]triazine-5-carboxamide] | 1500 to 5000 |  | > 5000 | > 5000 |

Source: patent US20240132521A1, “COMPOUNDS AND METHODS FOR MODULATING HER2” (Iambic Therapeutics, Inc., priority 2022, published 2024)
